These results are taken from US4943595A, “Perfluorochemicals and process for preparing the same” (The Green Cross Corporation, priority 1984, dated 1990).

Molecules are shown by their SMILES.

Assay in one data set: not given
Particulars: comparison between perfluorochemicals; cited from earlier work.
Consider `FC(F)(F)C(F)(F)C1(C(F)(F)F)C(F)(C(F)(F)F)OC(F)(C(F)(F)F)C1(F)C(F)(F)F` (centres unmarked) [II], for which the “elimination rate (in words)” value is given as “IV>>III≥I >II”.
Regarding `FC(F)(F)C(F)(F)C(F)(F)C(F)(F)C1(F)C(F)(F)C(F)(F)C(F)(F)C(F)(F)C1(F)F` [III], the “elimination rate (in words)” value is reported as “IV>>III≥I >II”.

A further data set in a line: Vapor pressure of the perfluorochemical. Particulars: 37.5° C.
`FC(F)(F)C(F)(F)C(F)(OC(F)(F)C(F)(C(F)(F)F)C(F)(F)F)C(F)(C(F)(F)F)C(F)(F)F` (centres unmarked) [Ex. 4, Perfluoro-3-isobutoxy-2-methyl pentane]: the Vapor pressure is on record as 14-15 mmHg.
Same read-out and setting: as for `FC(F)(F)C(F)(F)C(F)(OC(F)(F)C(F)(F)C(F)(C(F)(F)F)C(F)(F)F)C(F)(C(F)(F)F)C(F)(F)F` (centres unmarked) [Ex. 6, Perfluoro-3-isopentoxy-2-methylpentane], the figure is 8-9 mmHg; as for `FC(F)(F)C(F)(F)C(F)(F)C(F)(F)OC(F)(C(F)(F)C(F)(F)F)C(F)(C(F)(F)F)C(F)(F)F` (centres unmarked) [Ex. 3, Perfluoro-3-n-butoxy-methylpentane], 11-13 mmHg.
On the same count and under the same terms, the same measure for `FC(F)(F)C(F)(F)C(F)(OC(F)(C(F)(F)C(F)(F)F)C(F)(C(F)(F)F)C(F)(F)F)C(F)(F)F` (centres unmarked) [Ex. 5, Perfluoro-3-sec-butoxy-2-methylpentane]: 13-14 mmHg; for `FC(F)(F)C(F)(F)C(F)(OC(F)(C(F)(F)F)C(F)(F)F)C(F)(C(F)(F)F)C(F)(F)F` (centres unmarked) [Ex. 2, Perfluroo-3-isopropoxy-2-methylpentane]: 35-36 mmHg.

Still in this data set, the particulars now being: 38° C.
In the case of `FC(F)(F)C(F)(F)N(C(F)(F)C(F)(F)F)C(F)(C(F)(F)C(F)(F)F)C(F)(C(F)(F)F)C(F)(F)F` (centres unmarked) [Example 43, perfluoro-3-diethylamino-2-methylpentane], the Vapor pressure is reported as 9-10 mmHg.
Still for that read-out and setting: the same measure for `FC(F)(F)C(F)(F)C(F)(F)C(F)(F)OC(F)(F)C(F)(F)C(F)(F)C(F)(F)C(F)(F)C(F)(F)C(F)(F)F` [Ex. 21, Perfluoro-1-n-butoxyheptane]: 8-9 mmHg.
In turn, `FC(F)(F)N(C(F)(F)C(F)(F)F)C(F)(F)C(F)(C(F)(F)F)C(F)(F)C(F)(F)C(F)(F)F` (centres unmarked) [Example 34, perfluoro-1-ethylmethylamino-2-methylpentane] showed a Vapor pressure of 21 mmHg.
Same read-out and setting: as for `FC(F)(F)N(C(F)(F)F)C(F)(F)C(C(F)(F)F)(C(F)(F)F)C(F)(F)C(F)(F)C(F)(F)F` [Example 41, Perfluoro-1-dimethylamino-2,2-dimethylpentane], the figure is 18-19 mmHg.
For `FC(F)(F)C(F)(F)C(F)(F)OC(F)(C(F)(C(F)(F)F)C(F)(F)F)C(F)(C(F)(F)F)C(F)(F)F` [Example 7, Perfluoro-3-propoxy-2,4-dimethylpentane], the Vapor pressure is recorded as 16-17 mmHg.
On the same count and under the same terms, the same measure for `FC(F)(F)C(F)(F)C(F)(F)C(F)(F)C(F)(F)C(F)(F)C(F)(F)OC(F)(C(F)(F)F)C(F)(F)C(F)(F)F` (centres unmarked) [Ex. 23, Perfluoro-1-sec-butoxyheptane]: 9-10 mmHg; for `FC(F)(F)C(F)(F)C(F)(F)C(OC(F)(C(F)(F)F)C(F)(F)F)(C(F)(F)F)C(F)(F)F` [Ex. 13, Perfluoro-2-isopropoxy-2-methylpentane]: 29-30 mmHg.
Regarding `FC(F)(F)C(F)(F)C(F)(F)OC(OC(F)(F)C(F)(F)C(F)(F)F)(C(F)(F)F)C(F)(F)F` [Example 32, perfluoro-2,2-di-n-propoxy-propane], the Vapor pressure is given as 29-30 mmHg.
The same measure, in the same setting: the same measure for `FC(F)(F)C(F)(F)OC(OC(F)(F)C(F)(F)C(F)(F)C(F)(F)C(F)(F)F)(C(F)(F)F)C(F)(F)F` [Example 31, perfluoro-2-pentoxy-2-ethoxy propane]: 13-14 mmHg; for `FC(F)(F)OC(OC(F)(F)C(F)(F)C(F)(F)C(F)(F)C(F)(F)F)(C(F)(F)F)C(F)(F)F` [Example 30, perfluoro-2-pentoxy-2-methoxypropane]: 28-29 mmHg.
Regarding `FC(F)(F)N(C(F)(F)F)C(F)(C(F)(F)C(F)(F)F)C(F)(C(F)(F)F)C(F)(F)F` (centres unmarked) [Example 42, 3-perfluoro-3-dimethylamino-2-methylpentane], the Vapor pressure is 37-38 mmHg.
As for `FC(F)(F)C(F)(F)N(C(F)(F)C(F)(F)F)C(F)(F)C(F)(C(F)(F)F)C(F)(F)C(F)(F)C(F)(F)F` (centres unmarked) [Example 35, perfluoro-1-diethylamino-2-methylpentane], the Vapor pressure is listed as 8-9 mmHg.
As to `FC(F)(F)C(F)(F)C(F)(F)C(F)(F)OC(C(F)(F)F)(C(F)(F)F)C(F)(F)C(F)(F)C(F)(F)F` [Ex. 14, Perfluoro-2-n-butoxy-2-methylpentane], the Vapor pressure was 13-14 mmHg.
On the same count and under the same terms, the same measure for `FC(F)(F)N(C(F)(F)F)C(C(F)(F)F)(C(F)(F)F)C(F)(F)C(F)(F)C(F)(F)F` [Example 38, perfluoro-2-dimethylamino-2-methylpentane]: 37-38 mmHg.
Regarding `FC(F)(F)N(C(F)(F)F)C(F)(C(F)(C(F)(F)F)C(F)(F)F)C(F)(C(F)(F)F)C(F)(F)F` [Example 44, perfluoro-3-dimethylamino-2,4-dimethylpentane], the Vapor pressure is on record as 21-22 mmHg.
In the case of `FC(F)(F)C(F)(F)OC(F)(C(F)(F)F)C(F)(C(F)(C(F)(F)F)C(F)(F)F)C(F)(C(F)(F)F)C(F)(F)F` (centres unmarked) [Example 27, perfluoro-2-ethoxy-3-isopropyl-4-methylpentane], the Vapor pressure is 10-11 mmHg.
The same measure, in the same setting: as for `FC(F)(F)N(C(F)(F)C(F)(F)C(F)(F)F)C(C(F)(F)F)(C(F)(F)F)C(F)(F)C(F)(F)C(F)(F)F` [Example 40, perfluoro-2-methylpropylamino-2-methylpentane], the figure is 9-10 mmHg.
The same measure, in the same setting: as for `FC(F)(F)N(C(F)(F)C(F)(F)F)C(F)(F)C(F)(C(F)(F)F)C(F)(F)C(F)(C(F)(F)F)C(F)(F)F` (centres unmarked) [Example 37, perfluoro-1-ethyl-methylamino-2,4-dimethylpentane], the figure is 12-13 mmHg; as for `FC(F)(F)C(F)(F)C(F)(F)C(OC(F)(C(F)(F)F)C(F)(F)C(F)(F)F)(C(F)(F)F)C(F)(F)F` (centres unmarked) [Ex. 16, Perfluoro-2-sec-butoxy-2-methylpentane], 15-16 mmHg; as for `FC(F)(F)N(C(F)(F)F)C(F)(F)C(F)(C(F)(F)F)C(F)(F)C(F)(F)C(F)(F)F` (centres unmarked) [Example 33, perfluoro-1-dimethylamino-2-methylpentane], 37-38 mmHg.
On the same count and under the same terms, as for `FC(F)(F)C(F)(F)C(F)(F)C(OC(F)(F)C(F)(C(F)(F)F)C(F)(F)F)(C(F)(F)F)C(F)(F)F` [Ex. 15, Perfluoro-2-isobutoxy-2-methylpentane], the figure is 15-16 mmHg; as for `FC(F)(F)C(F)(F)C(F)(F)C(OC(F)(F)C(F)(F)C(F)(C(F)(F)F)C(F)(F)F)(C(F)(F)F)C(F)(F)F` [Ex. 17, Perfluoro-2-isovaleroxy-2-methylpentane], 9-10 mmHg.
For the compound `FC(F)(F)C(F)(F)C(F)(F)C(F)(F)C(F)(F)C(F)(F)C(F)(F)OC(F)(C(F)(F)F)C(F)(F)F` [Ex. 20, Perfluoro-1-isopropoxyheptane], the Vapor pressure is 14-15 mmHg.
Still for that read-out and setting: the same measure for `FC(F)(F)C(F)(F)OC(F)(F)C(F)(F)C(F)(F)C(F)(F)C(F)(F)C(F)(F)C(F)(F)F` [Ex. 19, Perfluoro-1-ethoxyheptane]: 33 mmHg; for `FC(F)(F)N(C(F)(F)C(F)(F)F)C(C(F)(F)F)(C(F)(F)F)C(F)(F)C(F)(F)C(F)(F)F` [Example 39, Perfluoro-2-methylethylamino-2-methylpentane]: 20-21 mmHg.
Consider `FC(F)(F)OC(F)(F)C(F)(C(F)(F)F)C(F)(OC(F)(F)F)C(F)(F)C(F)(F)F` (centres unmarked) [Example 29, perfluoro-1,3-dimethoxy-2-methylpentane], for which the Vapor pressure is 48-50 mmHg.
Turning to `FC(F)(F)OC(F)(C(F)(F)F)C(F)(C(F)(C(F)(F)F)C(F)(F)F)C(F)(C(F)(F)F)C(F)(F)F` (centres unmarked) [Example 26, perfluoro-2-methoxy-3-isopropyl-4-methylpentane], the Vapor pressure was 18-19 mmHg.
Still for that read-out and setting: as for `FC(F)(F)N(C(F)(F)F)C(F)(F)C(F)(C(F)(F)F)C(F)(F)C(F)(C(F)(F)F)C(F)(F)F` (centres unmarked) [Example 36, Perfluoro-1-dimethylamino-2,4-dimethylpentane], the figure is 18-19 mmHg.
Same read-out and setting: as for `FC(F)(F)C(F)(F)C(F)(F)C(F)(F)OC(F)(C(F)(C(F)(F)F)C(F)(F)F)C(F)(C(F)(F)F)C(F)(F)F` [Ex. 10, Perfluoro-3-n-butoxy-2,4-dimethylpentane], the figure is 8-9 mmHg; as for `FC(F)(F)C(F)(F)OC(F)(F)C(F)(C(F)(F)F)C(F)(OC(F)(F)C(F)(F)F)C(F)(F)C(F)(F)F` (centres unmarked) [Example 28, perfluoro-1,3-diethoxy-2-methylpentane], 13-14 mmHg; as for `FC(F)(F)OC(F)(C(F)(F)F)C(F)(F)C(C(F)(F)F)(C(F)(F)C(F)(F)F)C(F)(F)C(F)(F)F` (centres unmarked) [Example 24, perfluoro-2-methoxy-4-ethyl-4-methylhexane], 17-18 mmHg.
Regarding `FC(F)(F)C(F)(F)OC(F)(C(F)(F)F)C(F)(F)C(C(F)(F)F)(C(F)(F)C(F)(F)F)C(F)(F)C(F)(F)F` (centres unmarked) [Example 25, perfluoro-2-ethoxy-4-ethyl-4-methylhexane], the Vapor pressure was 8-9 mmHg.
On the same count and under the same terms, as for `FC(F)(F)C(F)(F)C(F)(F)OC(F)(C(F)(F)C(F)(F)F)C(F)(C(F)(F)F)C(F)(F)F` (centres unmarked) [Example 1, perfluoro-3-n-propoxy-2-methylpentane], the figure is 29 mmHg.
On the same count and under the same terms, the same measure for `FC(F)(F)C(F)(F)OC(F)(C(F)(C(F)(F)F)C(F)(F)F)C(F)(C(F)(F)F)C(F)(F)F` [Ex. 8, Perfluoro-3-ethoxy-2,4-dimethylpentane]: 30-31 mmHg.
Same read-out and setting: the same measure for `FC(F)(F)C(F)(F)C(F)(F)C(F)(F)C(F)(F)C(F)(F)C(F)(F)OC(F)(F)C(F)(C(F)(F)F)C(F)(F)F` [Ex. 22, Perfluoro-1-isobutoxyheptane]: 8-9 mmHg; for `FC(F)(F)C(F)(F)C(F)(F)OC(C(F)(F)F)(C(F)(F)F)C(F)(F)C(F)(F)C(F)(F)F` [Example 12, Perfluoro-2-n-propoxy-2-methylpentane]: 33 mmHg.
With `FC(F)(F)C(F)(C(F)(F)F)C(F)(F)OC(F)(C(F)(C(F)(F)F)C(F)(F)F)C(F)(C(F)(F)F)C(F)(F)F` [Ex. 11, Perfluoro-3-isobutoxy-2,4-dimethylpentane], the Vapor pressure is given as 8-9 mmHg.
